Test results from patent US7744933B2, “Use of unsaponifiable components of vegetable oils for preparing a cosmetic and related treatments” (Laboratories Expanscience, priority 1998, dated 2010).

Test system: PAI-1
Assay: 35S-methionine radiolabelling for the synthesis of PAI-1 in chondrocytes (SDS-PAGE, fluorography)
Assay type: cell-based, bovine
Conditions: 24 hours; Piasclédine 300 10 μg/ml or TGF-β1 1 ng/ml; cell+matrix fraction
Procedure: The chondrocytes are isolated from calf cartilages as described in the article by Benya et al. (“The progeny of articular chondrocytes synthesize collagen types I and II trimer, but not type II. Verification by cyanogen bromide peptide analysis”, Biochemistry 1977; 16: 865-872). Primary cultures of chondrocytes are used in order to minimize the phenotypic changes. The cultures are plated at the rate of 6.0×10^6 cells per 175-cm^2 dish (for the extraction of RNA), at the rate of 5.0×10^6 cells per well in 6-well plates (9.6 cm^2) (for the labelling of PAI-1) and at the rate of 1.2×10^6 cells in 100-mm Petri dishes (transfection). […]
The confluent cultures in 6-well plates (9.6 cm^2) are labelled with [^35S]methionine (40 μCi/nil, Arnersham, France) in the presence of Piasclédine 300® (10 μg/nil) and TGF-β1 (1 ng/ml) for 24 hours. […] The band at 46 kD is determined to correspond to PAI-1 by previous immunoblotting using a rabbit polyclonal anti-PAI-1 antibody (Dako, Copenhagen, Denmark) as described in the article by Laiho M et al., reference cited above.
It was observed that the medium contained only minor quantities of newly-synthesized PAI-1. […]

TGF-β1: transforming growth factor β1 protein, 1 ng/ml, marketed by R & D Systems, used as positive control
PAI-1 fraction (synthesis of PAI-1) versus control cultures: significantly greater
